Legend:
[1] = test system: Human hair follicles in growth phase (anagen); assay: Human hair follicle growth assay; format: cell-based; settings: for Hair follicle length increase (mm) Treated: day 0 to day 7; for % Reduction of human hair follicle growth / Growth of follicle (mm) Treated: Table III
Method: Human Hair Follicle Growth Assay:
Human hair follicles in growth phase (anagen) were isolated from face-lift tissue (obtained from plastic surgeons) under dissecting scope using a scalpel and watchmakers forceps. The skin was sliced into thin strips exposing 2-3 rows of follicles that could readily be dissected. Follicles were placed into 0.5 ml William's E medium (Life Technologies, Gaithersburg, Md.) supplemented with 2 mM L-glutamine, 10 μg/ml insulin, 10 ng/ml hydrocortisone, 100 units of penicillin, 0.1 mg/ml streptomycin and 0.25 μg/ml amphotericin B. The follicles were incubated in 24-well plates (1 follicle/well) at 37° C. in an atmosphere of 5% CO2 and 95% air. Compounds are dissolved into dimethyl sulfoxide as 100-fold stock solution. The control hair follicles were treated with dimethyl sulfoxide without prostaglandin. The follicles were photographed in the 24-well plates under the dissecting scope at a power of 10×. Typically, image recordings were made on day 0 (day follicles were placed in culture), and again on day 7. The length of hair follicle was assessed using an image analysis software system. The growth of hair fiber was calculated by the subtracting the follicle length on day 0 from that determined on day 7.

hamster hair mass = assay: Hamster hair mass assay; format: in vivo; settings: vehicle 90% ethanol and 10% propylene glycol
Method: Hamster Hair Mass Assay: Hamster hair mass was determined using a method similar to that described in previous patent (US2004/0198821).

[2] = Homo sapiens, Table II, dose 100 μM, vs control

SMILES | inhibition at 100 µM [1, 2] [%] | Hair follicle length increase (mm) Treated ([1]; Table II, dose 100 μM) [mm] | % Reduction of human hair follicle growth ([1]; dose 50 μM) [%] | Growth of follicle (mm) Treated ([1]; dose 50 μM) [mm] | % Inhibition of hamster hair mass (hamster hair mass; dose 5% (w/v)) [%] | Hair mass (mg) Treated (hamster hair mass; dose 5% (w/v)) [mg] | % Reduction of human hair follicle growth ([1]; dose 10 μM) [%] | Growth of follicle (mm) Treated ([1]; dose 10 μM) [mm] | % Reduction of human hair follicle growth ([1]; dose 100 μM) [%] | Growth of follicle (mm) Treated ([1]; dose 100 μM) [mm] | other results
C[C@H](CCC(=O)O)[C@H]1CC[C@H]2[C@@H]3[C@H](O)C[C@@H]4C[C@H](O)CC[C@]4(C)[C@H]3CC[C@]12C [Chenodeoxycholic acid] | 95.3 ± 5.6 | 0.05 ± 0.06 | 91.6 ± 6.5 | 0.13 ± 0.10 | 76.4 ± 2.6 | 0.54 ± 0.08 |  |  |  |  | % Reduction of human hair follicle growth ([1]; dose 5 μM): 1.3 ± 18.7%; Growth of follicle (mm) Treated ([1]; dose 5 μM): 1.53 ± 0.29 mm; % Reduction of human hair follicle growth ([1]; dose 25 μM): 49.0 ± 17.4%; Growth of follicle (mm) Treated ([1]; dose 25 μM): 0.79 ± 0.27 mm
C[C@H](CCC(=O)O)[C@H]1CC[C@H]2[C@@H]3CC[C@@H]4C[C@H](O)CC[C@]4(C)[C@H]3C[C@H](O)[C@]12C [Deoxycholic acid] | 94.3 ± 4.7 | 0.06 ± 0.05 | 69.3 ± 13.6 | 0.54 ± 0.34 | 63.6 ± 6.0 | 0.92 ± 0.14 | 31.8 ± 18.1 | 1.20 ± 0.49 | 69.3 ± 13.6 | 0.54 ± 0.34 | 
CC(C)=CCCC(C)=CCCC(C)=CCO [Farnesol] | 95.4 ± 8 | 0.04 ± 0.07 |  |  |  |  |  |  |  |  | 
COC(=O)C=C(C)CCC=C(C)CCC1OC1(C)C (centres unmarked) [Juvenile hormone III, 7-Methyl-9-(3,3-dimethyloxivanyl)-3-methyl-2,6-nonadienoic acid methyl ester] |  | 0.21 ± 0.15 |  |  |  |  |  |  |  |  | % Inhibition of human hair follicle growth ([1]; Table II, dose 100 μM, vs control): 75.9 ± 17.2%
C[C@H](CCC(=O)O)[C@H]1CC[C@H]2[C@@H]3CC[C@@H]4C[C@H](O)CC[C@]4(C)[C@H]3CC[C@]12C [Lithocholic acid] |  |  |  |  |  |  | 64.5 ± 12.9 | 0.44 ± 0.16 |  |  | inhibition at 50 µM ([1]; Homo sapiens, Table II, dose 50 μM, vs control): 98.1 ± 1.9%; Hair follicle length increase (mm) Treated ([1]; Table II, dose 50 μM): 0.02 ± 0.02 mm; % Reduction of human hair follicle growth ([1]; dose 2 μM): 33.9 ± 11.3%; Growth of follicle (mm) Treated ([1]; dose 2 μM): 0.82 ± 0.14 mm; % Reduction of human hair follicle growth ([1]; dose 20 μM): 97.6 ± 4.8%; Growth of follicle (mm) Treated ([1]; dose 20 μM): 0.03 ± 0.06 mm; % Inhibition of hamster hair mass (hamster hair mass; dose 4% (w/v)): 46.4 ± 6.0%; Hair mass (mg) Treated (hamster hair mass; dose 4% (w/v)): 1.01 ± 0.12 mg
C[C@H](CCC(=O)O)[C@H]1CC[C@H]2[C@@H]3[C@@H](O)C[C@@H]4C[C@H](O)CC[C@]4(C)[C@H]3CC[C@]12C [Ursodeoxycholic acid] |  |  | 36.3 ± 13.6 | 1.12 ± 0.24 | 56.8 ± 3.8 | 1.02 ± 0.16 |  |  | 51.1 ± 11.4 | 0.86 ± 0.20 | inhibition at 200 µM ([1]; Homo sapiens, Table II, dose 200 μM, vs control): 81.3 ± 10.3%; Hair follicle length increase (mm) Treated ([1]; Table II, dose 200 μM): 0.20 ± 0.11 mm; % Reduction of human hair follicle growth ([1]; dose 150 μM): 65.3 ± 11.4%; Growth of follicle (mm) Treated ([1]; dose 150 μM): 0.61 ± 0.20 mm

Reference: US7618956B2, “Reduction of hair growth” (The Gillette Company, priority 2005, dated 2009)
